Data set [1] concerns mouse pancreatic cancer cell line PAN02. The data set is described as follows: Anti-tumor effect in PAN02 tumor-bearing mouse model. In kind it is in vivo, mouse (C57/BL6). Particulars: PAN02 tumor-bearing mice, 50 mg/kg intragastric twice a day. From the text: The invention used the PAN02 tumor-bearing mouse model to test the anti-tumor effect of the example compounds. The PAN02 tumor-bearing mouse model was the mouse pancreatic cancer cell line PAN02 purchased from Guangzhou Ginnio Biological Technology Co., Ltd., and the culture medium used was DMEM containing 10% fetal bovine serum. The mouse strain used for tumor-bearing was C57/BL6 purchased from Shanghai Slac Laboratory Animal Co., Ltd. At the time of implanting, the PAN02 cells in the logarithmic growth phase were collected, and mixed with the BDMatrigel matrix gel that reduced the growth factor to 50 million cells/ml. Each mouse was implanted subcutaneously with 100 μL of 5 million cells. When the tumor grew to about 100 cubic millimeters, animals were randomly divided into groups with 8 animals per group. Drug administration was started (D0).
Mode of administration: intragastrical administration, twice a day.
(§1) Formulation prescription: 3% two methyl acetamide and 20% hydroxypropyl-β-cyclodextrin. • Administration period and tumor measurement: The administration period was 13 days. The tumor volume was measured, the mice were weighed, and the data were recorded, 3 times a week. The calculation formula of tumor volume (V) is: V=½a×b2, where a and b represent length and width respectively. The calculation formula of T/C is: T/C (%)=100×ΔT/ΔC. Tumor inhibition rate (%)=1−T/C (%). • Experimental results: the anti-tumor effect of the compound of Example 15 in PAN02 tumor-bearing mouse model is shown in the following table.

A short description of data set [2]: Pharmacokinetic (PK) analysis of rat plasma. It is filed as in vivo. The conditions noted are these: Sprague-Dawley, po, 20 mg/kg, SD rats, single gavage, 20 mg/10 mL/kg. The method, then:
The pharmacokinetics test of the test compound was performed with Sprague Dawley (SD) rats (Shanghai Slac Laboratory Animal Co., LTD).
Mode of administration: Single gavage.
U Dosage: 20 mg/10 mL/kg.
Formulation prescription: 3% dimethylacetamide and 20% hydroxypropyl-3-cyclodextrin.
Sampling points: before administration and 15 minutes, 0.5, 1, 2, 4, 6, 8 and 24 hours after administration.
Plasma sampling and sample processing: • 1) 0.2 ml of intravenous blood was collected and placed in an EDTA-2K tube. The blood was centrifuged at 4° C. for 5 minutes at 6,000 rpm to separate the plasma, which was stored at −80° C. • 2) 160 μL of acetonitrile were added to 40 μL of plasma sample, standard, and internal reference. The mixture was shaken vertically for 3 minutes, and centrifuged at 4000 rpm for 10 minutes. 100 μL of the supernatant were taken, and then added with 100 μL of deionized water and mixed well. 100 μL of the resulting solution was taken for LC/MS/MS analysis. The instrument for plasma LC/MS/MS analysis was AB Sciex API 4000.
Liquid Chromatography Analysis: • Liquid chromatography conditions: Shimadzu LC-20AD pump • Chromatographic column: phenomenex Gemiu 5 μm C18 50×4.6 mm • Mobile phase: solution A was 0.1% formic acid solution, and solution B was acetonitrile • Flow rate: 0.8 mL/min • Elution time: 0-3.01 minutes and the eluent was as follows:
• Mass spectrometry analysis: setup conditions of mass spectrometer: positive ion electrospray ionization (ESI) mode. • Experimental results: the main parameters of pharmacokinetics were calculated by WinNonlin 6.1 and the experimental results are shown in the following table: […]

The test system of data set [3] is mouse rectal cancer cell line Colon26. Briefly: Anti-tumor effect in Colon26 tumor-bearing mouse model. In kind it is in vivo, mouse (Balb/c). The conditions noted are these: Colon26 tumor-bearing mice.
Excerpt: The present invention further used the Colon26 tumor-bearing mouse model to test the anti-tumor effect of the example compounds. The Colon26 tumor-bearing mouse model was the mouse rectal cancer cell line Colon26 purchased from Guangzhou Ginio Biological Technology Co., Ltd., and the culture medium used was RPMI1640 containing 10% fetal bovine serum. The mouse strain used for tumor-bearing was Balb/c purchased from Sino-British SIPPR/BK Lab Animal Co., Ltd. At the time of implanting, the Colon26 cells in logarithmic growth phase were collected and mixed to 10 million cells/ml. Each mouse was implanted subcutaneously with 100 μl of one million cells. When the tumor grew to about 100 cubic millimeters, animals were randomly divided into groups with 8 animals per group. Drug administration was started (D0).
Mode of administration: intragastric administration, twice a day.
as §1, with “3% dimethylacetamide” for “3% two methyl acetamide”, “times per” for “times a”, “is: V=½a×b2” for “is: V=½a×b2,”, “and width,” for “and width”, “results: The antitumor” for “results: the anti-tumor”, “in Colon26” for “in PAN02”
Under the same experimental conditions, the dosage was adjusted. The anti-tumor effect of Example 15 and its optical isomers 18-(1) and 18-(2) in Colon26 tumor-bearing mouse model is shown in the following table: […]

Data set [4] addresses T1, Human indoleamine 2,3-dioxygenase (IDO) (Homo sapiens, UniProt P14902).
T1 construct: purchased BPS Bioscience Inc
The data set is described as follows: Enzymatic test for IDO activity inhibition. It is filed as biochemical. The conditions noted are these: 40 nM IDO enzyme, 0.2 mM L-tryptophan, 60 minutes at 30° C. The method, then:
Human indoleamine 2,3-dioxygenase (IDO) was purchased from BPS Bioscience Inc. The enzymatic reaction of idoleamine 2,3-dioxygenase (IDO) was performed in a 96-well plate with a reaction volume of 20 μL. The reaction conditions were: 40 nM IDO enzyme, 0.2 mM L-tryptophan, 50 mM KPB (pH 6.5) buffer, 20 mM sodium L-L-ascorbate, 10 μM methylene blue, 0.2 mg/mL catalase, different concentrations of compounds containing <1% dimethyl sulfoxide. After reacting for 60 minutes at 30° C., 5 μL of 30% (w/v) trichloroacetic acid (in 50 mM KPB buffer) weres added to each well. The plate was incubated for 30 minutes at 50° C. to hydrolyze N-formyl-kynurenine to kynurenine. 25 μL of 2% (w/v) p-(dimethylamino)benzaldehyde (p-DMBA)/glacial acetic acid solution were added to each well. The absorbance at 490 nm was read on a BioTek Synergy H1 microplate reader […].
The stock solution of the test compound was prepared to 10 mM with dimethyl sulfoxide, diluted with dimethyl sulfoxide to the highest concentration of the test during the experiment, then diluted in 1:3 gradient, and generally diluted to 8 to 10 concentration points. Duplicate wells were set for each concentration point, and one reference compound was included in each experiment. The original data of the absorbance at 490 nm read on a microplate reader were analyzed. The inhibition of IDO enzyme activity was calculated at different concentrations of the test compound. The half-inhibitory concentration IC50 value of the compound was obtained by non-linear fitting analysis of inhibition percentage data by GraphPad Prism software.

Data set [5] concerns the target T2, indoleamine 2,3-dioxygenase (IDO) in HeLa cells (Homo sapiens, UniProt P14902).
T2 construct: Interferon γ induced the expression of IDO in HeLa cells; host or cells: HeLa cells induced with interferon γ
Briefly: Cell model test for IDO activity inhibition (interferon γ induced HeLa cells). It is filed as cell-based. The conditions noted are these: interferon γ 50 ng/mL, 24 hours, read-out: Cytological Test IC50. On the procedure:
Interferon γ induced the expression of IDO in HeLa cells. This model was used to test the inhibitory activity of compounds on indoleamine 2,3-dioxygenase (IDO). The culture medium of HeLa cells (ATCC) was phenol red-free RPMI-1640 containing 100 μM L-tryptophan. The stock solution of the test compound was prepared to 10 mM with dimethyl sulfoxide, and diluted with dimethyl sulfoxide to the highest concentration of the test during the experiment, then diluted in three-fold gradient, and generally diluted to 8 to 10 concentration points. Duplicate wells were set for each concentration point. The final concentration of DMSO was 0.5%, and internal reference compound was included in each experiment.
The procedure of the experiment was as follows: 20,000 HeLa cells (ATCC) per well were added on a 96-well culture plate and incubated overnight. After 24 hours, interferon γ (final concentration of 50 ng/mL) and different concentrations of the test compound and the internal reference compound were added to the incubated cells. After 24 hours, 140 μL of the supernatant/well was transferred to a new 96-well plate, and 10 μL of 6.1 N trichloroacetic acid was added to each well. The plate was incubated for 30 minutes at 50° C. to hydrolyze N-formyl-kynurenine to kynurenine. The reaction mixture was centrifuged at 2500 rpm for 10 minutes to remove the precipitate, and the supernatant (100 μL) was transferred to another new 96-well plate. 100 μL of 2% (W/V) p-(dimethylamino)benzaldehyde (p-DMBA)/glacial acetic acid solution was added to each well. The absorbance at 490 nm was read on a BioTek Synergy H1 microplate reader […].
The original data of the absorbance at 490 nm read on a microplate reader were analyzed. The inhibition of IDO enzyme activity was calculated at different concentrations of the test compound. The half-inhibitory concentration IC50 value of the compound was obtained by non-linear fitting analysis of inhibition percentage data by GraphPad Prism software.

[6] abbreviates: 25 mg/kg intragastric twice a day, D12.

Molecules are shown by their SMILES. pIC50: −log10 of the molar value.

T1 sequence (P14902 whole entry): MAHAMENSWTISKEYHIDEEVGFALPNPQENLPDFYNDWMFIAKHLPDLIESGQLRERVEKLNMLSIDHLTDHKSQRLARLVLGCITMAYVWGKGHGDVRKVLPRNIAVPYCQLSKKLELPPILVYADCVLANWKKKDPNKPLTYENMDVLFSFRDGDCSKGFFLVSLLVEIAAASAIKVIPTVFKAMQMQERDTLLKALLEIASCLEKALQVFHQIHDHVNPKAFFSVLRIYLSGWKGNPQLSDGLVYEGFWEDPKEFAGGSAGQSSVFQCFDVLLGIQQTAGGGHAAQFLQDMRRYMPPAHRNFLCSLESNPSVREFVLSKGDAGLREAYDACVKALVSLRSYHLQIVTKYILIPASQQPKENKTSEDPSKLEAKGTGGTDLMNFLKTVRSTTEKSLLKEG
T2 sequence (P14902 whole entry): as above

Consider `NS(=O)(=O)NCCNc1nonc1C(=NO)Nc1ccc(F)c(Br)c1` [INCB-24360, Epacadostat, reference compound], for which the “Average tumor volume (mm^3 ± SEM) D0” value in data set [1] (D0 (start of administration)) came out at 102.8 ± 3.4 mm^3. Also, in data set [1] (D12), the “Average tumor volume (mm^3 ± SEM) D12” value was 242.1 ± 23.4 mm^3 and the “T/C (%) D12” value is listed as 60.3%. Besides, in data set [1] (D12, 50 mg/kg), the “Tumor inhibition rate (%) D12” value was 39.7%. In data set [2], the AUC(0-inf) – broadly, total exposure, with the tail of the curve extrapolated – was 2450 ng·h/mL; the Cmax (usually the peak of the concentration-time curve) turned out to be 306 ng/mL; the Tmax (usually the time from dosing to the highest level) is 1 h; the half-life (as a rule, the time needed for the level to fall by half in the phase considered) is 3.5 h. The “Average tumor volume (mm^3 ± SEM) D0” value in data set [3] (25 mg/kg intragastric twice a day, D0 (start of administration)) came to 95.3 ± 2.4 mm^3. Also, in data set [3] (setting [6]), the “Average tumor volume (mm^3 ± SEM) D12” value was 565.2 ± 10.9 mm^3 and the “T/C (%) D12” value is recorded as 21.6%. In data set [3] (25 mg/kg intragastric twice a day, D12, 25 mg/kg), the “Tumor inhibition rate (%) D12” value is on record as 78.4%.
As to `C[S@@](=O)(CCNc1nonc1/C(=N/O)Nc1ccc(F)c(Br)c1)=NS(=O)(=O)C1CC1` [Example 18-①, (R,Z)—N-(3-bromo-4-fluorophenyl)-4-((2-(N-(cyclopropylsulfonyl)-S-methylsulfonimidoyl)ethyl)amino)-N′-hydroxy-1,2,5-oxadiazole-3-carboximidamide], the pIC50 (in general, −log10 of the IC50, conventionally taken in molar units) in data set [4] is 7.72. Also, in data set [2], the AUC(0-inf) worked out at 7320 ng·h/mL, the Cmax is 2770 ng/mL, the Tmax is 0.5 h and the half-life was 2.03 h. For the same compound, the pIC50 in data set [5] was 7.96. Moreover, the “Tumor inhibition rate (%) D12” value in data set [3] (10 mg/kg, D12) is on record as 72.54%.
Regarding `C[S@](=O)(CCNc1nonc1/C(=N/O)Nc1ccc(F)c(Br)c1)=NS(=O)(=O)C1CC1` [Example 18-②, (S,Z)—N-(3-bromo-4-fluorophenyl)-4-((2-(N-(cyclopropylsulfonyl)-S-methylsulfonimidoyl)ethyl)amino)-N′-hydroxy-1,2,5-oxadiazole-3-carboximidamide], the pIC50 in data set [4] was 7.62. Besides, in data set [2], the total exposure AUC(0-inf) turned out to be 4610 ng·h/mL, the Cmax worked out at 2020 ng/mL, the Tmax amounted to 0.5 h and the half-life was 1.4 h. For the same compound, the pIC50 in data set [5] is 8.05. The “Tumor inhibition rate (%) D12” value in data set [3] (10 mg/kg, D12) worked out at 68.49%.
`NC(=O)C(=O)NCCNc1nonc1/C(=N/O)Nc1ccc(F)c(Br)c1` [Example 1, (Z)—N^1-(2-((4-(N-(3-bromo-4-fluorophenyl)-N′-hydroxycarbamimidoyl)-1,2,5-oxadiazol-3-yl)amino)ethyl)oxalamide]: the pIC50 in data set [4] was 7.15. Besides, in data set [2], the AUC(0-inf) came to 8620 ng·h/mL, the peak level (Cmax) was 3680 ng/mL, the Tmax came out at 0.5 h and the half-life is 2.7 h. In data set [5], the pIC50 was 7.82.
Take `CS(=O)(=O)N=S(C)(=O)CCNc1nonc1/C(=N/O)Nc1ccc(F)c(Br)c1` (centres unmarked) [Example 14, (Z)—N-(3-bromo-4-fluorophenyl)-N′-hydroxy-4-((2-(S-methyl-N-(methylsulfonyl)sulfonimidoyl)ethyl)amino)-1,2,5-oxadiazole-3-carboximidamide]: in data set [4], the pIC50 is 7.42. In addition, in data set [2], the AUC(0-inf) worked out at 7540 ng·h/mL, the Cmax worked out at 1050 ng/mL, the Tmax is 0.5 h and the half-life is 5.5 h. Also, the pIC50 in data set [5] was 7.92.

The record behind these values is patent US20190040025A1, “INDOLEAMINE 2,3-DIOXYGENASE INHIBITOR, PREPARATION METHOD THEREFOR, AND APPLICATION” (Jiangsu Hansoh Pharmaceutical Group Co., Ltd., priority 2016, published 2019).
